# Experimental data published in the NIST ThermoML archive (doi:10.1016/j.jct.2010.02.010).
# ± gives the expanded uncertainty stated by the source.
# Details: for mass density: 101.33 kPa, Buoyancy - hydrostatic balance; for mass density / surface tension liquid-gas: Liquid; for surface tension liquid-gas: Maximal bubble pressure
smiles,measurement,setting,value
CCCC[n+]1ccccc1.[O]=[Re](=[O])(=[O])[O-] [1-butylpyridinium perrhenate],mass density,293.15 K,1910.1 ± 8.1 kg/m3
same,surface tension liquid-gas,293.15 K,41.6 ± 0.6 mN/m
same,mass density,298.15 K,1902.5 ± 8.1 kg/m3
same,surface tension liquid-gas,298.15 K,41.2 ± 0.6 mN/m
same,mass density,303.15 K,1894.9 ± 8 kg/m3
same,surface tension liquid-gas,303.15 K,40.7 ± 0.6 mN/m
same,mass density,308.15 K,1886.9 ± 8 kg/m3
same,surface tension liquid-gas,308.15 K,40.5 ± 0.6 mN/m
same,mass density,313.15 K,1881.8 ± 8 kg/m3
same,surface tension liquid-gas,313.15 K,40 ± 0.6 mN/m
same,mass density,318.15 K,1877.6 ± 7.9 kg/m3
same,surface tension liquid-gas,318.15 K,39.7 ± 0.6 mN/m
same,mass density,323.15 K,1869.2 ± 7.9 kg/m3
same,surface tension liquid-gas,323.15 K,39.4 ± 0.6 mN/m
same,mass density,328.15 K,1862.7 ± 7.9 kg/m3
same,surface tension liquid-gas,328.15 K,39 ± 0.6 mN/m
same,mass density,333.15 K,1856.9 ± 7.9 kg/m3
same,surface tension liquid-gas,333.15 K,38.6 ± 0.6 mN/m
same,mass density,338.15 K,1853.2 ± 7.8 kg/m3
same,surface tension liquid-gas,338.15 K,38.3 ± 0.6 mN/m
same,mass density,343.15 K,1846.8 ± 7.8 kg/m3
same,surface tension liquid-gas,343.15 K,38.2 ± 0.6 mN/m
same,Glass transition temperature,"Glass, DTA",-66 ± 1 °C
